# In patent US7138421B2, “Anti-androgenic pyrrolidines with tumor-inhibiting action” (Schring Aktiengesellschaft, priority 2003, dated 2006):
# Like-named read-outs stand apart in the source and are kept apart here.
# What was measured:
# [1] = tested on: LNCaP cells; experiment: Inhibition of the proliferation of LNCaP cells (crystal violet assay); format: cell-based, human; conditions: for IC50: 7 to 8 days
# Experimental: For the proliferation assay, 6000 LNCaP cells/well (Horoszewicz et al. Cancer Res. 1983, 43, 1809–1817) in a microtiter plate (96-well) in 50 μl of RPMI1640 medium are grown with 5% CCS and cultivated as in Model 1. After 24 hours, the cells receive 50 μl of 2×-concentrated test substance, diluted in culture medium. The solvent concentration is 0.5% DMSO. After 4 days, the cells receive another 100 μl of 1×-concentrated test substance, diluted in culture medium. After 7 to 8 days, the proliferation rate of the cells is determined by means of crystal violet assay (Gillies et al. Anal. Biochem. 1986, 159, 109–113). To determine the antagonism, the substance treatment is performed in the presence of […] of R1881 (1:1000 dilution of ethanolic solution). Control cells receive only 0.5% DMSO. For the agonism, the cells are treated only with test substance (without R1881).
# [2] = tested on: seminal vesicles; experiment: Anti-androgenic action on testosterone-stimulated growth of the seminal vesicles of castrated mice; format: in vivo, mouse; conditions: 7 days, castrated mice with testosterone propionate
# Experimental: The function and the size of accessory reproductive glands (prostate and seminal vesicles) depend on androgens. In castrated animals, a growth of these organs is induced by the administration of androgen. Simultaneous treatment with anti-androgens inhibits this growth in a dose-dependent manner. For the examination of test substances, the mice were castrated. On the same day, treatment with testosterone propionate (0.03 mg/mouse) and the test substances (1× daily 10 or 30 mg/kg p.o. in benzyl benzoate-castor oil or ethanol/peanut oil (10:90)) was formulated. The treatment was carried out over 7 days and at the end of the test, the weights of the seminal vesicles and prostate were determined. The inhibition of the seminal vesicle growth, in percent, was calculated in reference to the control groups (with and without testosterone). As a reference substance, cyproterone acetate (30 mg/kg s.c. and p.o.) was used.
# [3] = Pharmacokinetics in rats after intravenous and peroral administration; format: in vivo; conditions: rat, serum; for Vd / clearance: intravenous; for Vd: read-out: Distribution Volume Vdss; for clearance: read-out: Systemic Serum Clearance CL; for Tmax: read-out: Absorption Tmax
# From the text: Model 4: Pharmacokinetics in Rats After Intravenous and Peroral Administration
# The pharmacokinetic properties of the compounds according to the invention were studied in Examples 1: 4-[4,4-dimethyl-5-oxo-3-[8-(pyrrolidin-1-yl)octyl]-2-thioxoimidazolidin-1-yl]-2-(trifluoromethyl)benzonitrile and 11: 4-[3-[8-[(2S)-2-(hydroxymethyl)pyrrolidin-1-yl]octyl]-4,4-dimethyl-5-oxo-2-thioxoimidazolidin-1-yl]-2-(trifluoromethyl)benzonitrile.
# [4] = target: T1, androgen receptor (Homo sapiens, UniProt P10275, T878A); format: cell-based; conditions: LNCaP cells, 48 h, 10 μM, % of DMSO control
# T1 construct: Destabilization of AR in LNCaP Cells by Test Substances; endogenous in cells; host or cells: LNCaP (human prostate cell line)
# T1 sequence (P10275 1-920 T878A): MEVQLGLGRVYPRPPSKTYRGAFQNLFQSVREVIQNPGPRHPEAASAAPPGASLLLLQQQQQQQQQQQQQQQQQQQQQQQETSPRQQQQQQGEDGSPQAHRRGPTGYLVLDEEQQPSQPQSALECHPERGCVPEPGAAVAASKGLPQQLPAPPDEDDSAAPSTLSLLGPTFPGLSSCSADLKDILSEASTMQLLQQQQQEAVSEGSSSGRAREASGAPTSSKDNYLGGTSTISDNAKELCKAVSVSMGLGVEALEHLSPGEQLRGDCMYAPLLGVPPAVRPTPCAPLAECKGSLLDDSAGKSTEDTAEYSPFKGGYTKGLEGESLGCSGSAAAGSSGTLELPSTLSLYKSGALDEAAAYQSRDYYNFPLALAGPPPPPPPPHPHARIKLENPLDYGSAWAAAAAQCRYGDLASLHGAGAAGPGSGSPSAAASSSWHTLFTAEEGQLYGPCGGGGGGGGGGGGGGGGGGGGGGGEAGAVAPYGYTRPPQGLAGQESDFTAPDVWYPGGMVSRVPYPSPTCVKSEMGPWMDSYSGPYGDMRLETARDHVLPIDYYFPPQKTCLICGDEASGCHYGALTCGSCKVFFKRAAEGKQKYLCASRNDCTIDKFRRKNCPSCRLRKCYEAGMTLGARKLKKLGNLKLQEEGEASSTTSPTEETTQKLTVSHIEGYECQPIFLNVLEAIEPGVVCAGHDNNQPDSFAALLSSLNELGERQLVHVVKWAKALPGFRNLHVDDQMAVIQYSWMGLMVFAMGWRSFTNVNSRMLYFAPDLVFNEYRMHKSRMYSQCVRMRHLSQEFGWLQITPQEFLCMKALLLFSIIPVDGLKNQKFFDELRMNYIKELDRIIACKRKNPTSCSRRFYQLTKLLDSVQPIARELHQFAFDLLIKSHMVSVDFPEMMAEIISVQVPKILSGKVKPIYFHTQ
# [5] = Homo sapiens, LNCaP, read-out: % Inhibition at 1 μM, 1 μM test substance, compared to cell growth in the presence of 0.1 nmol of R1881
# [6] = Homo sapiens, LNCaP, read-out: IC50 inhibition of the proliferation of LNCaP cells, in the presence of 0.1 nmol of R1881
# [7] = iv, read-out: Half-Life i.v. T1/2 (converted)
# [8] = po, read-out: Half-Life p.o. T1/2 (converted)
Compound,"inhibition at 1 µM [1, 5]","IC50 [1, 6]","% Inhibition of MSB Growth ([2]; 10 mg/kg p.o., 1× daily)","% Inhibition of MSB Growth ([2]; 30 mg/kg p.o., 1× daily)",Vd [3],clearance [3],"half-life [3, 7]",bioavailability ([3]; po),Tmax ([3]; po),"half-life [3, 8]",AR Content at 10 μM [4],"% Inhibition at 1 μM ([1]; 1 μM test substance, compared to cell growth in the presence of 0.1 nmol of R1881)","IC50 ([1]; read-out: IC50 inhibition of the proliferation of LNCaP cells, in the presence of 0.1 nmol of R1881, hydrochloride)","inhibition at 1 µM ([1]; Homo sapiens, LNCaP, 1 μM test substance, compared to cell growth in the presence of 0.1 nmol of R1881, read-out: % Inhibition at 1 μM)",% Inhibition of MSB Growth ([2]; 30 mg/kg s.c.)
"CC1(C)C(=O)N(c2ccc(C#N)c(C(F)(F)F)c2)C(=S)N1CCCCCCCCN1CCC[C@@H]1CO [Example 10, 4-[3-[8-[(2R)-2-(Hydroxymethyl)pyrrolidin-1-yl]octyl]-4,4-dimethyl-5-oxo-2-thioxoimidazolidin-1-yl]-2-(trifluoromethyl)benzonitrile]",101%,< 10 nM,87%,–,–,–,–,–,–,–,–,–,–,–,–
"CC1(C)C(=O)N(c2ccc(C#N)c(C(F)(F)F)c2)C(=S)N1CCCCCCCCN1CCCC1 [Example 1, 4-[4,4-Dimethyl-5-oxo-3-[8-(pyrrolidin-1-yl)octyl]-2-thioxoimidazolidin-1-yl]-2-(trifluoromethyl)benzonitrile]",98%,45 nM,82%,99%,37 L/kg,76 mL/min/kg,5.6 h,72%,5 h,6.1 h,63%,–,–,–,–
"CC1(C)C(=O)N(c2ccc(C#N)c(C(F)(F)F)c2)C(=S)N1CCCCCCCCN1CCC[C@H]1CO [Example 11, 4-[3-[8-[(2S)-2-(Hydroxymethyl)pyrrolidin-1-yl]octyl]-4,4-dimethyl-5-oxo-2-thioxoimidazolidin-1-yl]-2-(trifluoromethyl)benzonitrile]",102%,13 nM,–,95%,11 L/kg,20 mL/min/kg,5.7 h,65%,7 h,8 h,50%,–,–,–,–
"CC1(C)C(=O)N(c2ccc(C#N)c(C(F)(F)F)c2)C(=S)N1CCCCCCCCN1CCCC1.Cl [Example 2, 4-[4,4-Dimethyl-5-oxo-3-[8-(pyrrolidin-1-yl)octyl]-2-thioxoimidazolidin-1-yl]-2-(trifluoromethyl)benzonitrile hydrochloride]",–,–,–,95%,–,–,–,–,–,–,50%,100%,41 nM,–,–
"CC(O)(CS(=O)(=O)c1ccc(F)cc1)C(=O)Nc1ccc(C#N)c(C(F)(F)F)c1 (stereo not shown) [Bicalutamide, N-[4-Cyano-3-(trifluoromethyl)phenyl]-3-[(4-fluorophenyl)sulfonyl]-2-hydroxy-2-methylpropanamide, reference compound]",–,–,–,82%,–,–,–,–,–,–,–,–,–,85%,86%
